Source: publication PMC12789660, “Mycobacterial respiratory chain enzymes and growth are inhibited by decylubiquinone” (Communications Biology, 2025)

Key:
[1] = target: T1, QcrB subunit of CIII2 (CIII2CIV2 supercomplex) (Mycolicibacterium smegmatis, UniProt A0R052); experiment: cryo-EM structure, […] Å; DCQ modeled in oxidized state at […] occupancy (shared with MQ); format: binding; parameters: gene MSMEG_4263; intact CIII2CIV2 supercomplex purified in GDN, C-terminally FLAG-tagged on QcrB; with QcrA (Rieske), QcrC and CIV subunits of the CIII2CIV2 supercomplex
[2] = target: T1, QcrB subunit of CIII2 (CIII2CIV2 supercomplex); experiment: DMNQH2 oxidation:O2 reduction activity, Clark-type oxygen electrode; format: biochemical; parameters: gene MSMEG_4263; intact purified CIII2CIV2 supercomplex, C-terminally FLAG-tagged on QcrB; with QcrA (Rieske), QcrC and CIV subunits of the CIII2CIV2 supercomplex
[3] = target: T2, QcrB subunit of CIII2 (CIII2CIV2 supercomplex), AAA variant (Mycolicibacterium smegmatis, UniProt A0R052, F153A/M305A/M337A); experiment: biochemical
T2 construct: gene MSMEG_4263

cytochrome bd-I = target: T3, cytochrome bd-I (Mycolicibacterium smegmatis, UniProt A0QXA8); experiment: O2 reduction rate, Clark-type electrode; turnover at […]; format: biochemical
T3 construct: gene MSMEG_3233; purified cytochrome bd-I (cydAB, Strep-tagged on CydB) in DDM; with CydB
T3 sequence (A0QXA8 1-487): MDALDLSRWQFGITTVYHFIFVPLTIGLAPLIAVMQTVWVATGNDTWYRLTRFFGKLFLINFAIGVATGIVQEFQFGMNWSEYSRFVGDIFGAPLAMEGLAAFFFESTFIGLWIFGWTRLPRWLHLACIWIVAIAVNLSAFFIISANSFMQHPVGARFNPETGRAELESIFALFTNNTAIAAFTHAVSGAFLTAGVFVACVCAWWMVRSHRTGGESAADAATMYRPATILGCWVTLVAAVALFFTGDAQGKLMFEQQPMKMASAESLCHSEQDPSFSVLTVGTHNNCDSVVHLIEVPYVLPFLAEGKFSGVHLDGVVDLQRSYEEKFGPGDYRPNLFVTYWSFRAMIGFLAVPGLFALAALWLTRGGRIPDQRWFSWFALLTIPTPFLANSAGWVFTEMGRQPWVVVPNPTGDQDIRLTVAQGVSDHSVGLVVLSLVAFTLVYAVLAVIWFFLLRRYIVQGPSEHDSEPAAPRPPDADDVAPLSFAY
T3 sequence (A0QXA7 1-350 partner): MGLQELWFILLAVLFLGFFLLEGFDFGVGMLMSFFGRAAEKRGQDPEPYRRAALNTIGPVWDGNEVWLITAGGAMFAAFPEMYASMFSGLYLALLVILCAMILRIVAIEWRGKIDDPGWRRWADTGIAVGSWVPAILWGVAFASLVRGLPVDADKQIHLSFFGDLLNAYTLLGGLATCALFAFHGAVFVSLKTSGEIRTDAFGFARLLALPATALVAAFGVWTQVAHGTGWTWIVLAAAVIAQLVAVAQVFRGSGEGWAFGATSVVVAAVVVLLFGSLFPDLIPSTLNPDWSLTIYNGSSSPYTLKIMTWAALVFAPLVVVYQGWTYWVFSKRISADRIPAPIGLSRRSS

[4] = target: T1, QcrB subunit of CIII2 (CIII2CIV2 supercomplex); experiment: O2 reduction rate, Clark-type oxygen electrode; turnover […] s^−[…] at […]; format: biochemical; parameters: gene MSMEG_4263; intact purified CIII2CIV2 supercomplex, C-terminally FLAG-tagged on QcrB; with QcrA (Rieske), QcrC and CIV subunits of the CIII2CIV2 supercomplex

`CCCCCCCCCCC1=C(C)C(=O)C(OC)=C(OC)C1=O` [DCQ, decylubiquinone] was tested, and the “cryo-EM structure, 2.5 Å; DCQ modeled in oxidized state at 50% occupancy (shared)” value [1] was “The DCQ density is seen in the more distal Qo1b position, i.e., the same as that of the native MQ”.

`CCCCCCCCCCc1c(C)c(O)c(OC)c(OC)c1O` [DCQH2] was tested, and the IC50 [2] was about 70 µM and the IC50 [3] was about 130 µM.

In the case of `Cc1c(C)c(O)c2ccccc2c1O` [DMNQH2], the “O2 reduction rate, Clark-type electrode; turnover at 300 μM” value (cytochrome bd-I) is reported as 18 ± 1 s⁻¹ and the “O2 reduction rate, Clark-type oxygen electrode; turnover 80 ± 10 s^-1 at 100 μM” value [4] is reported as 80 ± 10 s⁻¹.
